Measured values: US11066414B2, “Cot modulators and methods of use thereof” (Gilead Sciences, Inc., priority 2015, dated 2021)
Read-outs that look alike come from different tables or passages of the source.

Assays:
Human Cot = Human Cot (Homo sapiens (Human), UniProt P41279); assay: High Throughput Cot Biochemical Assay
TNFα = assay: Cot Monocyte TNFα Cell Based Assay
[1] = IC50 HTRF, Cot HTRF (TR-FRET) biochemical assay
[2] = Homo sapiens, Monocyte, read-out: EC50 TNF, LPS-stimulated human monocytes, TNFα
[3] = read-out: IC50 HTRF, Cot HTRF (TR-FRET KinEASE) biochemical assay, 400 μM ATP
[4] = read-out: EC50 TNF, LPS-stimulated human monocytes, TNFα TR-FRET
[5] = read-out: IC50 HTRF, Cot HTRF (TR-FRET) biochemical assay
[6] = read-out: EC50 TNF, LPS-stimulated human monocytes, TNFα

Human Cot, sequence (P41279 30-397): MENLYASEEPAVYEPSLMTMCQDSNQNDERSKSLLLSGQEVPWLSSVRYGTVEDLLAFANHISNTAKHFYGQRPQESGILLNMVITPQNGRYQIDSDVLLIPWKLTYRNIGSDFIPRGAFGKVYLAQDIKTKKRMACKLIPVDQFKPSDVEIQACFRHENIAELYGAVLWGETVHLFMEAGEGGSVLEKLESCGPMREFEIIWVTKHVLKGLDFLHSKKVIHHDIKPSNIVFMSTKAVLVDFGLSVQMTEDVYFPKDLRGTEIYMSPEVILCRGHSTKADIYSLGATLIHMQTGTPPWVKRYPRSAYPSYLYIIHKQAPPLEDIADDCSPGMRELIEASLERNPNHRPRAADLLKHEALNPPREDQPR

SMILES	IC50 (Human Cot; [1])	EC50 (TNFα; [2])	also measured
CCN1CCC(n2cc([C@@H](Nc3cc(Cl)c4ncc(C#N)c(Nc5ccc(F)c(Cl)c5)c4c3)c3sccc3Cl)nn2)CC1 [Example 389, (R)-8-chloro-4-((3-chloro-4-fluoro-phenyl)amino)-6-(((3-chlorothiophen-2-yl)(1-(1-ethylpiperidin-4-yl)-1H-1,2,3-triazol-4-yl)methyl)amino)-quinoline-3-carbonitrile]	11 nM	328 nM	
[2H][C@](Nc1cc(Cl)c2ncc(C#N)c(Nc3c(F)ccc(Cl)c3F)c2c1)(c1ccc(F)nc1)c1cn(C2CC2)nn1 [Example 127, (S)-8-chloro-4-((3-chloro-2,6-difluorophenyl)amino)-6-(((1-cyclopropyl-1H-1,2,3-triazol-4-yl)(6-fluoropyridin-3-yl)methyl-d)amino)quinoline-3-carbonitrile]	16 nM	194 nM	
CC(C)n1ccc2c([C@H](Nc3cc(Cl)c4ncc(C#N)c(NCC(C)(C)C)c4c3)c3cn(C45CC(C4)C5)nn3)cccc2c1=O [Example 772, (S)-6-(((1-(bicyclo[1.1.1]pentan-1-yl)-1H-1,2,3-triazol-4-yl)(2-isopropyl-1-oxo-1,2-dihydroisoquinolin-5-yl)methyl)amino)-8-chloro-4-(neopentylamino)quinoline-3-carbonitrile]	2 nM	33 nM	
Cn1ncc2c([C@H](Nc3cc(Cl)c4ncc(C#N)c(NCC(C)(C)C)c4c3)c3cn(C4(C(F)F)CC4)nn3)cccc21 [Example 496, (S)-8-chloro-6-(((1-(1-(difluoromethyl)-cyclopropyl)-1H-1,2,3-triazol-4-yl)(1-methyl-1H-indazol-4-yl)methyl)amino)-4-(neopentylamino)quinoline-3-carbonitrile]	6 nM	467 nM	
Cc1nc(Cl)ccc1[C@H](Nc1cc(Cl)c2ncc(C#N)c(Nc3ccc(F)c(Cl)c3)c2c1)c1cn(C2COC2)nn1 [Example 321, (S)-8-chloro-6-(((6-chloro-2-methyl-pyridin-3-yl)(1-(oxetan-3-yl)-1H-1,2,3-triazol-4-yl)methyl)amino)-4-((3-chloro-4-fluorophenyl)amino)quinoline-3-carbonitrile]	10 nM	212 nM	
[2H][C@](Nc1cc(Cl)c2ncc(C#N)c(N[C@H](CC)c3ccccc3)c2c1)(c1ccc(F)nc1)c1cn(C2CC2)nn1 [Example 155, 8-chloro-6-(((S)-(1-cyclopropyl-1H-1,2,3-triazol-4-yl)(6-fluoropyridin-3-yl)methyl-d)amino)-4-(((R)-1-phenylpropyl)amino)quinoline-3-carbonitrile]	2 nM	79 nM	
Cc1nc(F)ccc1[C@H](Nc1cc(C#N)c2ncc(C#N)c(NCC(C)(C)C)c2c1)c1cn(C2(C3CC3)CC2)nn1 [Example 621, (S)-6-(((1-([1,1′-bi(cyclopropan)]-1-yl)-1H-1,2,3-triazol-4-yl)(6-fluoro-2-methylpyridin-3-yl)methyl)amino)-4-(neopentylamino)quinoline-3,8-dicarbonitrile]	1 nM	12 nM	
Cc1nc(F)ccc1[C@H](Nc1cc(C#N)c2ncc(C#N)c(NCC3(C(F)F)CC3)c2c1)c1cn(C2(C(F)(F)F)CC2)nn1 [Example 638, (S)-4-(((1-(difluoromethyl)-cyclopropyl)methyl)amino)-6-(((6-fluoro-2-methylpyridin-3-yl)(1-(1-(trifluoromethyl)cyclopropyl)-1H-1,2,3-triazol-4-yl)methyl)amino)quinoline-3,8-dicarbonitrile]	58 nM	858 nM	
Cn1ccc2c([C@H](Nc3cc(C#N)c4ncc(C#N)c(NCC(C)(C)C)c4c3)c3cn(C4(C5CC5)CC4)nn3)cccc2c1=O [Example 881, (S)-6-(((4-(1-(1-bi(cyclopropan)]-1-yl)-1H-1,2,3-triazol-4-yl)(2-methyl-1-oxo-1,2-dihydroisoquinolin-5-yl)methyl)amino)-4-(neopentylamino)quinoline-3,8-dicarbonitrile]			IC50 (Human Cot; [3]): 2 nM; EC50 (TNFα; [4]): 13 nM
CC(C)(C)CNc1c(C#N)cnc2c(C#N)cc(N[C@H](c3cn(C4(C(F)F)CC4)nn3)c3cccc4ncccc34)cc12 [Example 550, (S)-6-(((1-(1-(difluoromethyl)cyclopropyl)-1H-1,2,3-triazol-4-yl)(quinolin-5-yl)methyl)amino)-4-(neopentylamino)-quinoline-3,8-dicarbonitrile]	2 nM	29 nM	
CC(C)(C)CNc1c(C#N)cnc2c(C#N)cc(N[C@H](c3cn([C@@H]4C[C@@H]4F)nn3)c3cccc4ncccc34)cc12 [Example 899, 6-(((S)-(1-((1R,2S)-2-fluorocyclopropyl)-1H-1,2,3-triazol-4-yl)(quinolin-5-yl)methyl)amino)-4-(neopentylamino)quinoline-3,8-dicarbonitrile]			IC50 (Human Cot; IC50 HTRF, Cot HTRF (TR-FRET KinEASE) biochemical assay, 400 μM ATP): 2 nM; EC50 (TNFα; Homo sapiens, Monocyte, read-out: EC50 TNF, LPS-stimulated human monocytes, TNFα TR-FRET): 29 nM
Cc1nc(F)ccc1[C@H](Nc1cc(C#N)c2ncc(C#N)c(NCC(C)(C)C)c2c1)c1cn(C2(C(N)=O)CCC2)nn1 [Example 494, (S)-1-(4-(((3,8-dicyano-4-(neopentyl-amino)quinolin-6-yl)amino)(6-fluoro-2-methylpyridin-3-yl)methyl)-1H-1,2,3-triazol-1-yl)cyclobutane-1-carboxamide]	1 nM	444 nM	
Cn1ncc2cccc([C@H](Nc3cc(Cl)c4ncc(C#N)c(NCC(C)(C)C)c4c3)c3cn(C4(C(F)(F)F)CC4)nn3)c21 [Example 521, (S)-8-chloro-6-(((1-methyl-1H-indazol-7-yl)(1-(1-(trifluoromethyl)-cyclopropyl)-1H-1,2,3-triazol-4-yl)methyl)amino)-4-(neopentylamino)-quinoline-3-carbonitrile]	27 nM	256 nM	
CC(C)(C)CNc1c(C#N)cnc2c(C#N)cc(N[C@H](c3cn(C4(CO)CC4)nn3)c3cccc4ncsc34)cc12 [Example 465, (S)-6-((benzo[d]thiazol-7-yl(1-(1-(hydroxymethyl)cyclopropyl)-1H-1,2,3-triazol-4-yl)methyl)amino)-4-(neopentylamino)quinoline-3,8-dicarbonitrile]	2 nM	155 nM	
Cc1ncccc1[C@H](Nc1cc(Cl)c2ncc(C#N)c(Nc3ccc(F)c(Cl)c3)c2c1)c1cn(C2CCN(C(C)(C)C)CC2)nn1 [Example 283]			IC50 (Human Cot; [5]): 3 nM; EC50 (TNFα; [6]): 50 nM
CC(C)(C)CNc1c(C#N)cnc2c(C#N)cc(N[C@H](c3cn(C4(C)CC4)nn3)c3cccc4ncsc34)cc12 [Example 435, (S)-6-((benzo[d]thiazol-7-yl(1-(1-methylcyclopropyl)-1H-1,2,3-triazol-4-yl)methyl)amino)-4-(neopentylamino)-quinoline-3,8-dicarbonitrile]	1 nM	24 nM	
N#Cc1cnc2c(Cl)cc(N[C@@H](c3cncc(Cl)c3)c3c[nH]nn3)cc2c1Nc1cnc(F)c(F)c1 [Example 152, (S)-8-chloro-6-(((5-chloropyridin-3-yl)(1H-1,2,3-triazol-4-yl)methyl)amino)-4-((5,6-difluoropyridin-3-yl)amino)quinoline-3-carbonitrile]	10 nM	904 nM	
N#Cc1cnc2c(Cl)cc(N[C@H](c3c[nH]nn3)c3csc4c3CCN(C3COC3)C4)cc2c1Nc1ccc(Cl)c(Cl)c1F [Example 222, (S)-8-chloro-4-((3,4-dichloro-2-fluorophenyl)amino)-6-(((6-(oxetan-3-yl)-4,5,6,7-tetrahydrothieno[2,3-c]pyridin-3-yl)(1H-1,2,3-triazol-4-yl)methyl)amino)quinoline-3-carbonitrile]	19 nM	739 nM	
Cc1nc(F)ccc1[C@H](Nc1cc(C#N)c2ncc(C#N)c(NCC(C)(C)C)c2c1)c1cn(Cc2c(F)cccc2F)nn1 [Example 601, (S)-6-(((1-(2,6-difluorobenzyl)-1H-1,2,3-triazol-4-yl)(6-fluoro-2-methylpyridin-3-yl)methyl)amino)-4-(neopentylamino)quinoline-3,8-dicarbonitrile]	4 nM	32 nM	
COc1nccc2c([C@H](Nc3cc(Cl)c4ncc(C#N)c(NCC(C)(C)C)c4c3)c3cn(C4(C)CC4)nn3)cccc12 [Example 913, (S)-8-chloro-6-(((1-methoxylsoquinolin-5-yl)(1-(1-methylcyclopropyl)-1H-1,2,3-triazol-4-yl)methyl)amino)-4-(neopentylamino)quinoline-3-carbonitrile]			IC50 (Human Cot; [3]): 6 nM; EC50 (TNFα; [4]): 86 nM
Cc1nc(F)ccc1[C@H](Nc1cc(Cl)c2ncc(C#N)c(NCC(C)(C)C)c2c1)c1nnn(C2CC2)c1F [Example 663, (S)-8-chloro-6-(((1-cyclopropyl-5-fluoro-1H-1,2,3-triazol-4-yl)(6-fluoro-2-methylpyridin-3-yl)methyl)amino)-4-(neopentylamino)quinoline-3-carbonitrile]	3 nM	62 nM	
CC[C@@H](Nc1c(C#N)cnc2c(Cl)cc(N[C@@H](c3cccnc3)c3cn(C(C)(C)C)nn3)cc12)c1ccccc1 [Example 192, 6-(((S)-(1-(tert-butyl)-1H-1,2,3-triazol-4-yl)(pyridin-3-yl)methyl)amino)-8-chloro-4-(((R)-1-phenylpropyl)arnino)quinoline-3-carbonitrile]			IC50 (Human Cot; [5]): 3 nM; EC50 (TNFα; [6]): 186 nM
CC(C)(C)CNc1c(C#N)cnc2c(C#N)cc(N[C@H](c3cn(C4(C(F)(F)F)CC4)nn3)c3ccc(F)c4ncccc34)cc12 [Example 627, (S)-6-(((8-fluoroquinolin-5-yl)(1-(1-(trifluoro-methyl)cyclopropyl)-1H-1,2,3-triazol-4-yl)methyl)amino)-4-(neopentylamino)quinoline-3,8-dicarbonitrile]	4 nM	46 nM	
